Measurements: paper PMC6753678, “Fueling Open Innovation for Malaria Transmission-Blocking Drugs: Hundreds of Molecules Targeting Early Parasite Mosquito Stages” (Frontiers in Microbiology, 2019)

What was measured:
[1] = tested on: P. falciparum late stage (stages IV-V) gametocytes; assay: P. falciparum late stage gametocyte ATP depletion assay (Pf GC-ATP); conditions: 1: YES; 0: NO; >10-fold selectivity over cytotoxicity
[2] = tested on: HepG2 cells; assay: HepG2 cytotoxicity assay; conditions: HepG2 cytotoxicity unified across screens; >25 set to 25.00
Summary of the method: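 HepG2 cells, 2,500 per well in MEM with 10% FBS and 1% NEAA, exposed to compounds for 48 h at 37°C, 5% CO2. Viability read by fluorescence; percent inhibition relative to 50 μM doxorubicin and DMSO controls.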

[3] = tested on: P. falciparum late stage (stages IV-V) gametocytes; parameters: method as in Almela et al 2016; conditions: P. falciparum late stage gametocyte ATP assay, TCAMS screen; ref Almela et al 2016; read-out: Pf GCT ATP IC50; cited from earlier work

Row | Structure (SMILES) | Is compound selective in assay? Pf GC-ATP active? [1] | Unified cytotox [2] [µM] | IC50 [3] [nM]
1 | COC(=O)c1sc(-c2ccc(Cl)cc2)cc1N(CCCN1CCC(N2CCCCC2)CC1)S(=O)(=O)c1ccc(C)cc1 [TCMDC-135561] | 0 (0: NO) | 4.37 | 3360
2 | CC(C)(C)N1CCC(N(Cc2ccc(-c3ccc(C(F)(F)F)cc3)cc2)C(=O)Cn2c(CCc3cccc(F)c3F)cc(=O)c3cccnc32)CC1.O=C(O)C(O)C(O)C(=O)O [TCMDC-136011] | 0 (0: NO) | 3.10 | 2390
3 | CCn1c(-c2nonc2N)nc2c(-c3cccc(NC(=O)Nc4ccccc4OC)c3)ncc(OCCCN)c21.O=C(O)C(F)(F)F [TCMDC-136190] | 1 (1: YES) | 5.90 | 440
4 | CCn1c(-c2nonc2N)nc2c(-c3cccc(NC(=O)Nc4cccc(C#N)c4)c3)ncc(OCCCN)c21.O=C(O)C(F)(F)F [TCMDC-136195] | 0 (0: NO) | 24.70 | 3510
5 | Cl.NCCCOc1cnc(-c2ccccc2)c2nc(-c3nonc3N)n(CCc3ccccc3)c12 [TCMDC-136216] | 0 (0: NO) | 5.61 | 1400
6 | O=C(Nc1ccc(F)c(C(F)(F)F)c1)NC1CCN(CCCCCNC(=O)C2CC2c2ccc(Cl)c(Cl)c2)CC1 (stereo not drawn) [TCMDC-136259] | 0 (0: NO) | 6.40 | 4350
7 | C[C@H]1CN(Cc2cccc(-c3cc(CNC(=O)c4cccc(CC5CCN(C)CC5)c4)ccc3F)c2)CCN1C [TCMDC-136349] | 0 (0: NO) | 6.97 | 850
8 | COc1cc(Br)c(S(=O)(=O)n2cc(CN3CCC(N)CC3)c3cc(Cl)ccc32)cc1OC.O=C(O)C(F)(F)F [TCMDC-136384] | 0 (0: NO) | 6.70 | 2420
9 | CN(C)Cc1ccc(-c2cccc(Nc3nccc(NCC(O)c4ccccc4)n3)c2)cc1 (stereo not drawn) [TCMDC-136467] | 0 (0: NO) | 5.87 | 900
10 | Fc1ccc(N(c2nc(-c3cc(F)cc(C(F)(F)F)c3)cs2)C2CCNCC2)cc1.O=C(O)C(F)(F)F [TCMDC-136656] | 0 (0: NO) | 6.60 | 3280
11 | CN(C)CCNC(=O)c1ccc(-c2cnc3ccc(NCc4ccc(Cl)c(Cl)c4)nn23)cc1 [TCMDC-136678] | 1 (1: YES) | 16.66 | 330
12 | CCNCc1cccc(-c2ccc3ccnc(N)c3c2)c1 [TCMDC-136869] | 0 (0: NO) | 12.50 | 1660
13 | FC(F)c1nc2ccccc2n1-c1nc(N2CCOCC2)nc(N2CCOCC2)n1 [TCMDC-137004] | 0 (0: NO) | 1.58 | 5440
14 | CS(=O)(=O)O.FC(F)(F)COc1c(CCNCCCCNCCc2ccc3ccccc3c2OCC(F)(F)F)ccc2ccccc12 [TCMDC-137169] | 1 (1: YES) | 2.80 | 100
15 | CCN(CC)CCOc1ccc(C(O)(C#CC(O)(c2ccccc2)c2ccc(OCCN(CC)CC)cc2)c2ccccc2)cc1 (stereo not drawn) [TCMDC-137197] | 0 (0: NO) | 3.67 | 690
16 | CCN(CC)CCOc1ccc(C(O)(C#CC(O)(c2ccc(C)cc2)c2ccc(OCCN(CC)CC)cc2)c2ccc(C)cc2)cc1 (stereo not drawn) [TCMDC-137198] | 1 (1: YES) | 1.62 | 140
17 | CCN(CC)CCOc1ccc(C(O)(C#CC(O)(c2ccc(OCCN(CC)CC)cc2)c2ccc([N+](=O)[O-])cc2)c2ccc([N+](=O)[O-])cc2)cc1 (stereo not drawn) [TCMDC-137201] | 1 (1: YES) | 6.20 | 220
18 | CCc1cc(COc2ccc(CNCCC(C)C)cc2I)c(OCc2ccccc2)c(COc2ccc(CNCCC(C)C)cc2I)c1.Cl [TCMDC-137255] | 0 (0: NO) | 5.80 | 1020
19 | CC(C)CCNCc1ccc(OCc2cccc(COc3ccc(CNCCC(C)C)cc3I)c2)c(I)c1.Cl [TCMDC-137274] | 1 (1: YES) | 5.30 | 370
20 | Cl.N=C(NCCCc1ccccc1)c1cccc(C(=N)NCCCc2ccccc2)n1 [TCMDC-137453] | 1 (1: YES) | 12.80 | 310
21 | COc1cc(CCNC(=N)/C=C/c2ccc(Cl)cc2)ccc1Cl.Cl [TCMDC-137457] | 1 (1: YES) | 14.00 | 280
22 | CCCCN(CCCC)CCCCNc1c2ccccc2nc2ccccc12.Cl [TCMDC-137461] | 1 (1: YES) | 19.00 | 550
